{"source": "patent US20240408115A1", "about": "“COMPOSITION AND METHODS OF TREATMENT USING […] - ENHANCED SUPPLEMENTATION” (Xygenyx Inc., priority 2023, published 2024)", "origin": "cited, not measured here", "key": {"[1]": {"conditions": "in vivo"}, "[2]": {"conditions": "penetration enhancer for transdermal drugs"}, "[3]": {"conditions": "in vivo", "remark": "listed apart in the source"}, "[4]": {"conditions": "topical formulations, within four weeks of treatment"}, "[5]": {"conditions": "compared to α-tocopherol = 1.0"}, "[6]": {"conditions": "dietary intake in equal portions"}, "[7]": {"conditions": "topical, concentrations 0.5-5%"}, "[8]": {"conditions": "dietary supplementation, doses up to 400 IU/day"}, "F2-isoprostane": {"tested_on": "F2-isoprostane", "conditions": "large doses of 1600-3200 IU/day"}, "[9]": {"tested_on": "wide dynamic range neurons in the ventroposterolateral nucleus of the thalamus", "conditions": "in vivo"}}, "note": "Non-standard residues stand in square brackets, D forms with d. Residues, ends and D or L forms follow the SMILES beside them. Cit = NC(=O)NCCC[C@H](N)C(=O)O"}
{"molecule": "HGH: hormone comprising a peptide chain that is synthesized in the pituitary gland", "values": [{"measurement": "biological half-life", "setting": "[1]", "value": "10-20 minutes"}]}
{"molecule": "CC12CCC(CC1)C(C)(C)O2", "note": "[eucalyptol, 1,8-epoxy-p-menthane]", "values": [{"measurement": "increase of transdermal drug uptake (factor)", "setting": "[2]", "value": "more than 10"}]}
{"molecule": "CCNC(=O)CC[C@H](N)C(=O)O", "note": "[Theanine]", "values": [{"measurement": "dose considered safe and well-tolerated", "setting": "[3]", "value": "up to 400 mg per day"}]}
{"molecule": "CC[C@H](C)[C@H](NC(=O)[C@H](CC(=O)O)NC(=O)[C@@H](N)CCCCN)C(=O)N[C@@H](CCCNC(N)=O)C(N)=O", "note": "[Tripeptide-10 citrulline] (H-KDI[Cit]-NH2)", "values": [{"measurement": "improvement of suppleness", "setting": "[4]", "value": "≤ 54", "unit": "%"}]}
{"molecule": "Cc1c(O)cc2c(c1C)O[C@](C)(CCC[C@H](C)CCC[C@H](C)CCCC(C)C)CC2", "note": "[γ-tocopherol]", "values": [{"measurement": "relative biological activity", "setting": "[5]", "value": 0.1}, {"measurement": "concentration in vivo relative to α-tocopherol", "setting": "[6]", "value": "roughly 10%"}]}
{"molecule": "Cc1cc(O)cc2c1O[C@](C)(CCC[C@H](C)CCC[C@H](C)CCCC(C)C)CC2", "note": "[δ-tocopherol]", "values": [{"measurement": "relative biological activity", "setting": "[5]", "value": 0.03}]}
{"molecule": "C=CCCCCCCCCC(=O)N[C@@H](Cc1ccccc1)C(=O)O", "note": "[UP, Undecylenoyl phenylalanine]", "values": [{"measurement": "time to skin lightening effects", "setting": "[7]", "value": "≥ 7", "unit": "days"}]}
{"molecule": "Cc1c(C)c2c(c(C)c1O)CC[C@@](C)(CCC[C@H](C)CCC[C@H](C)CCCC(C)C)O2", "note": "[α-tocopherol]", "values": [{"measurement": "reduction of risk of coronary disease", "setting": "[8]", "value": "up to 34%"}, {"measurement": "reduction of risk of developing neurodegenerative diseases such as Alzheimer's Syndrome or dementia", "setting": "[8]; controlled trials", "value": "≤ 24", "unit": "%"}, {"measurement": "blood plasma concentration of F2-isoprostane", "setting": "F2-isoprostane", "value": "significantly lower"}, {"measurement": "relative biological activity", "setting": "[5]", "value": 1.0}]}
{"molecule": "CCCCCc1cc(O)c2c(c1)OC(C)(C)C1CCC(C)=CC21", "note": "(stereo not drawn) [THC, Δ-9-tetrahydrocannabinol]", "values": [{"measurement": "potency in mediating pain relative to morphine", "setting": "[9]", "value": "ten times more powerful than morphine"}]}
{"molecule": "CC(C)[C@@H]1CC[C@@H](C)C[C@H]1O", "note": "[Menthol]", "values": [{"measurement": "increase of transdermal drug uptake (factor)", "setting": "[2]", "value": "≥ 10"}]}
{"molecule": "Cc1cc(O)c(C)c2c1O[C@](C)(CCC[C@H](C)CCC[C@H](C)CCCC(C)C)CC2", "note": "[β-tocopherol]", "values": [{"measurement": "relative biological activity", "setting": "[5]", "value": 0.5}]}
